ChEMBL document CHEMBL1687723, “Effects of zidovudine and stavudine on mitochondrial DNA of differentiating 3T3-F442a cells are not associated with imbalanced deoxynucleotide pools” (Antimicrob Agents Chemother, 2009)

Tests used:
[1] = Cytotoxicity against differentiated mouse 3T3-F442A cells assessed as depletion of mitochondrial DNA level at 1 uM by real-time PCR; format: cell-based
[2] = Cytotoxicity against differentiated mouse 3T3-F442A cells assessed as effect on total deoxynucleotides content at 1 uM after 2 to 10 days; format: cell-based
[3] = Cytotoxicity against differentiated mouse 3T3-F442A cells assessed as increase in total deoxynucleotides content at 10 uM after 2 to 10 days; format: cell-based
[4] = Cytotoxicity against differentiated mouse 3T3-F442A cells assessed as effect on total deoxynucleotides content at 10 uM after 2 to 10 days; format: cell-based
[5] = Cytotoxicity against differentiated mouse 3T3-F442A cells assessed as depletion of mitochondrial DNA level at 10 uM by real-time PCR; format: cell-based
[6] = Increase in mitochondrial DNA level in differentiated mouse 3T3-F442A cells at 1 uM by real-time PCR; format: ADME
[7] = Increase in mitochondrial DNA level in differentiated mouse 3T3-F442A cells at 10 uM by real-time PCR; format: ADME
[8] = Cytotoxicity against differentiated mouse 3T3-F442A cells assessed as increase in TTP content after 10 days; format: cell-based; conditions: 240 h

Structure (SMILES) | Activity [1] | Activity [2] | Activity [3] | Activity [4] | Activity [5] | Activity [6] | Activity [7] | Activity [8]
Cc1cn([C@H]2C=C[C@@H](CO)O2)c(=O)[nH]c1=O [STAVUDINE] | Non-toxic | Non-toxic | Toxic | Non-toxic | Toxic |  |  | 
Cc1cn([C@H]2C[C@H](N=[N+]=[N-])[C@@H](CO)O2)c(=O)[nH]c1=O [ZIDOVUDINE] |  | Non-toxic |  | Non-toxic |  | Non-toxic | Non-toxic | 35%
